Experimental data taken from patent US7514251B2, “O-methyltransferases of tetrahydrobenzylisoquinoline alkaloid biosynthesis in Papaver somniferum” (priority 2003, dated 2009).
Like-named read-outs stand apart in the source and are kept apart here. Marks after values point to notes of the source that are not given here.

What was measured:
[1] = target: T1, PSOMT1 ((R,S)-reticuline 7-O-methyltransferase) (Papaver somniferum, UniProt Q6WUC2); type: biochemical; settings: for methylated by PSOMT1 (radioassay, in words): one of forty substrates tested; for Km: read-out: Km Substrate
T1 construct: The full-length cDNA generated by RT-PCR was ligated into pFastBac HTa; His6 (N); made in house; host or cells: Spodoptera frugiperda Sf9 (baculovirus, pFastBac HTa)
T1 sequence (Q6WUC2 whole entry): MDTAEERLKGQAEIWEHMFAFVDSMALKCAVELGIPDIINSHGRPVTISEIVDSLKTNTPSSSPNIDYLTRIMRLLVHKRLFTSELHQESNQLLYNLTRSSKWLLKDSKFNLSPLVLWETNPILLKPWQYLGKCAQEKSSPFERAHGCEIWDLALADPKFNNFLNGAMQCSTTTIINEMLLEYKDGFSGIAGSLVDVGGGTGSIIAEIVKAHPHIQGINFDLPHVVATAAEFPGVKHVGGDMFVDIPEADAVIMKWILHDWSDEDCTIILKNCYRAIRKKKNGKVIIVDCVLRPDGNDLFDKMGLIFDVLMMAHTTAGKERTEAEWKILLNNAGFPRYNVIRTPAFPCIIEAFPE
Excerpt: (§1) Heterologous Expression and Enzyme Purification—The full-length cDNA generated by RT-PCR was ligated into pFastBac HTa that had been digested with restriction endonucleases BamHI and NotI. The recombinant plasmid was transposed into baculovirus DNA in the Escherichia coli strain DH10BAC (Life Technologies) and then transfected into Spodoptera frugiperda Sf9 cells according to the manufacturer's instructions. The insect cells were propagated and the recombinant virus was amplified according to (16,17). INSECT-XPRESS serum-free medium (Bio Whittaker) was used in the enzyme expression experiments.
(§2) After infection of 20 ml suspension grown insect cells had proceded for 3-4 days at 28° C. and 130 rpm, the cells were removed by centrifugation under sterile conditions at 900× g for 5 min at 4° C. All subsequent steps were performed at 4° C. The pellet was discarded and to the medium was added 0.73 g NaCl, 2.5 ml glycerol and 50 μl […]-mercaptoethanol. The pH was adjusted to 7.0 with 1.0 M NaOH. The His-tagged O-methyltransferase was then purified by affinity chromatography using a cobalt resin (Talon, Clontech) according to the manufacturer's instructions.
(§3) Enzyme assay and product identification: The O-methylation reactions catalysed by the two O-methyltransferases were assayed at least two times in duplicate according to Rüffer et al. (1983a; 1983b) as follows. Substrate (25 nmol), [methyl-3H]-AdoMet (20,000 dpm, 0.4 fmol), AdoMet (10 nmol) Tris/HC1 buffer pH 8.0 (10 μmol), ascorbate (5 μmol) and 5-10 μg of enzyme were incubated in a total volume of 150 μl at 35° C. for 5-60 min. The enzymic reaction was terminated by addition of 200 μl ethylacetate. The organic phase ([…]) was added to 3 ml high flash point liquid scintillation cocktail (Packard) and the radioactivity quantified with a Beckman LS6000TA liquid scintillation counter.
(§4) General Methods—Total RNA was isolated and RNA gels were run and blotted as described previously (20). Genomic DNA was isolated and DNA gels were run and blotted according to (21). cDNA clones were labeled by PCR labeling with [[…]-^32P]dATP. Hybridized RNA on RNA gel blots and DNA on DNA gel blots were visualized with a STORM phosphor imager (Molecular Dynamics). The entire nucleotide sequence on both DNA strands of the full-length clone was determined by dideoxy cycle sequencing using internal DNA sequences for the design of deoxyoligonucleotides as sequencing primers. Saturation curves and double reciprocal plots were constructed with the Fig. P program Version 2.7 (Biosoft, Cambridge, UK). The influence of pH on enzyme activity was monitored in sodium citrate (pH 4-6), sodium phosphate (pH 6-7.0) and Tris-HCl (pH 7.0-9), glycine/NaOH (pH 9-10.5) buffered solutions.

[2] = target: T2, PSOMT2 ((R,S)-norcoclaurine 6-O-methyltransferase) (Papaver somniferum, UniProt Q6WUC1); test: Radioassay of recombinant PSOMT2 with [methyl-3H]-AdoMet (substrate specificity, kinetics, pH and temperature optima); type: biochemical; settings: for Substrate specificity, relative activity of PSOMT2: 100% activity = 2.0 pmoles/sec/mg total protein, radioassay
T2 construct: The full-length cDNA generated by RT-PCR was ligated into pFastBac HTa; His6 (N); made in house; host or cells: Spodoptera frugiperda Sf9 (baculovirus, pFastBac HTa)
T2 sequence (Q6WUC1 1-346): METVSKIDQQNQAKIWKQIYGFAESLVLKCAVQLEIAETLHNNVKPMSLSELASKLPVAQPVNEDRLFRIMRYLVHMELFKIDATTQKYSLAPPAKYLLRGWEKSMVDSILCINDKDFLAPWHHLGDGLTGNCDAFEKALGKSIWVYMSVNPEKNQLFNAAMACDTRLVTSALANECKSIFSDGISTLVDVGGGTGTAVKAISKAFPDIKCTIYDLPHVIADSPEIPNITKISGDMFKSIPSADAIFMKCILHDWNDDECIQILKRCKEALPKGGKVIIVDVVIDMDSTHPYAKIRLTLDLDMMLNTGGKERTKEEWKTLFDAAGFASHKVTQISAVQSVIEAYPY
Excerpt: as §1, §2, §3, §4

[3] = 100% activity = 1.5 pmoles/sec/mg total protein, radioassay

Structure (SMILES)	Substrate specificity, relative activity of PSOMT1 [1, 3]	Substrate specificity, relative activity of PSOMT2 [2]	further results
COc1ccc(C(=O)O)cc1O [Isovanillic acid]	40%	0%	Vmax Substrate ([1]; PSOMT1): 1 pmol/s; kcat Substrate ([1]; PSOMT1): 0.02 s⁻¹; pH optimum of methylation ([1]; PSOMT1): 7.5; ratio kcat/Km ([1]; PSOMT1): 1210 M⁻¹ s⁻¹; methylated by PSOMT1 (radioassay, in words) [1]: methylates; Km ([1]; PSOMT1): 14 µM
COc1cc2c(cc1O)[C@H](Cc1ccc(O)cc1)NCC2 [(S)-Coclaurine]	0%	0%	
CN1CC[C@]23c4c5ccc(O)c4O[C@H]2[C@@H](O)C=C[C@H]3[C@H]1C5 [Morphine]	0%	0%	
COc1cc2c(cc1O)[C@@H]1Cc3ccc(OC)c(O)c3CN1CC2 [(S)-Scoulerine]	0%	0%	
COc1cc2c(cc1O)[C@H](Cc1ccc(OC)c(OC)c1)N(C)CC2 (racemic) [(R,S)-Codamine]	0%	0%	
Oc1ccc(CC2NCCc3cc(O)c(O)cc32)cc1 (racemic) [(R,S)-Norcoclaurine]	0%	100^a %	Vmax Substrate ([2]; PSOMT2): 5 pmol/s; kcat Substrate ([2]; PSOMT2): 0.08 s⁻¹; Km ([2]; PSOMT2, co-substrate AdoMet with the named substrate, read-out: Km AdoMet): 100 µM; Km ([2]; PSOMT2, read-out: Km Substrate): 10 µM; pH range of methylation ([2]; PSOMT2, wide pH range): 6.0-9.0; methylated by PSOMT2 (radioassay, in words) ([2]; one of forty substrates tested): methylating
O=C(O)/C=C/c1ccc(O)c(O)c1 [Caffeic acid]	0%	0%	
NCCc1ccc(O)c(O)c1 [Dopamine]		0%	Substrate specificity, relative activity of PSOMT1 [1]: 0%
COc1cc(CC2NCCc3cc(OC)c(O)cc32)ccc1O (racemic) [(R,S)-Nororientaline]	0%	0%	
COc1ccccc1O [Guaiacol]	242%	0%	Vmax Substrate ([1]; PSOMT1): 6 pmol/s; kcat Substrate ([1]; PSOMT1): 0.1 s⁻¹; kcat/Km ratio relative to the values determined for reticuline ([1]; PSOMT1): 135%; pH optimum of methylation ([1]; PSOMT1): 8.0; ratio kcat/Km ([1]; PSOMT1): 5870 M⁻¹ s⁻¹; temperature optimum ([1]; PSOMT1): 37 °C; methylated by PSOMT1 (radioassay, in words) [1]: methylates; Km ([1]; PSOMT1): 17 µM
COc1ccc(C[C@@H]2NCCc3cc(OC)c(O)cc32)cc1O [(S)-Norreticuline]	0%	0%	
COc1cc2c(cc1O)C(Cc1ccc(O)cc1)N(C)CC2 (racemic) [(R,S)-N-Methylcoclaurine]	0%	0%	
COc1cc2c(cc1O)C(Cc1ccc(O)c(O)c1)N(C)CC2 (racemic) [(R,S)-6-O-Methyllaudanosoline]	0%	0%	
O=c1ccc2cc(O)c(O)cc2o1 [Esculetin]	0%	0%	
COc1ccc2c(c1)CCN[C@H]2Cc1ccc(OC)c(O)c1 [(S)-7-Dehydroxy-norreticuline]	0%	0%	
COc1cc2c(cc1O)CCNC2Cc1ccc(O)cc1 (racemic) [(R,S)-Isococlaurine]	0%	0%	
Oc1ccccc1O [Catechol]	0%	0%	
COc1ccc(C[C@H]2c3cc(O)c(O)cc3CCN2C)cc1O [(S)-4′-O-Methyllaudanosoline]	0%	0%	
COc1ccc(CC2c3cc(OC)c(OC)cc3CCN2C)cc1O (racemic) [(R,S)-Laudanidine]	0%	0%	
O=c1c(O)c(-c2ccc(O)cc2O)oc2cc(O)cc(O)c12 [Morin]	0%	0%	
COc1ccc(CC2NCCc3cc(OC)c(O)cc32)cc1 (racemic) [(R,S)-4′-O-methylcoclaurine]	0%	0%	
COc1cc2c(cc1O)C[C@H]1c3cc(O)c(OC)cc3CCN1C2 [(S)-Coreximine]	0%	0%	
COc1ccc(C[C@H]2NCCc3cc(OC)c(O)cc32)cc1O [(R)-Norreticuline]	0%	0%	
COc1cc(O)c2c(=O)c(O)c(-c3ccc(O)c(O)c3)oc2c1 [Quercetin-7-methylether]	0%	0%	
COc1c(-c2ccc(O)c(O)c2)oc2cc(O)cc(O)c2c1=O [Quercetin-3-methylether]	0%	0%	
COc1ccc2c(c1)CCN[C@@H]2Cc1ccc(OC)c(O)c1 [(R)-7-Dehydroxy-norreticuline]	0%	0%	
COC1=C[C@]23CCN(C)[C@H](Cc4ccc(OC)c(O)c42)C3=CC1=O [Salutaridine]	0%	0%	
O=C(O)c1ccc(O)c(O)c1 [Protocatechuic acid]	0%	0%	
O=c1c(O)c(-c2ccc(O)c(O)c2)oc2cc(O)cc(O)c12 [Quercetin]	0%	0%	
COc1cc(C(=O)O)ccc1O [Vanillic acid]	0%	0%	
